Structures can show the parent of a compound that is named as a salt. Where two headings read alike, the source gives them in different places.
Tests used:
[1] = target: GST-Syk Full Protein (human) (Homo sapiens, UniProt P43405); experiment: Syk kinase inhibition test (HTRF method); type: biochemical
Summary of the method: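 HTRF read-out: after EDTA termination and 1 h with XL665-streptavidin and Eu-anti-phosphotyrosine, the 665/620 nm ratio was measured. The reaction ran 30 min at 20–25 °C with final 6.4 nM human GST-Syk, 250 nM biotinylated peptide, 100 μM ATP, pH 7.0 HEPES buffer, 2% DMSO.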

[2] = tested on: cultured human mast cells; experiment: Degranulation inhibition test using cultured human mast cells (IgE cross-linking, β-Hexosaminidase release); type: cell-based; conditions: Mast cell, cultured human mast cells, read-out: human degranulation ave. IC50
Summary of the method: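 Degranulation was triggered by anti-hIgE (10 μg/mL final, 30 min, 37 °C) after a 10-min compound pretreatment (DMSO 0.1%) of cord-blood CD34+-derived mast cells primed 5 days with IL-4 and IgE. β-Hexosaminidase in supernatant was measured with p-nitrophenyl-GlcNAc substrate (A405), expressed against water-lysed total; IC50 (M).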

[3] = HTRF, 100 μM ATP, 30 min room temperature, average, read-out: sykHTRF ave IC50
[4] = anti-hIgE stimulation, β-Hexosaminidase index, average
[5] = Tables 2-x, thiophene compounds B, read-out: sykHTRK ave IC50
[6] = Tables 2-x, thiophene compounds B
[7] = Tables 1-x, compounds A, read-out: sykHTRF ave IC50

IC50 [1, 3] [nM] | IC50 [2, 4] [nM] | IC50 [1, 7] [nM] | IC50 ([2]; Tables 1-x, compounds A) [nM] | Compound | also measured
< 100 | 100 to 1000 | – | – | Cc1ccnc(Nc2cccc(-c3cnc(C4CCC(O)CC4)s3)n2)c1 (stereo not drawn) [Compound A-73, 4-{5-[6-(4-methylpyridin-2-ylamino)pyridin-2-yl]thiazol-2-yl}cyclohexanol] | –
< 100 | > 1000 | – | – | Cc1ccnc(Nc2cccc(-c3cnc(CCC4CCN(C(=O)C5CCNCC5)CC4)s3)n2)c1 [Compound A-295, [4-(2-{5-[6-(4-methylpyridin-2-ylamino)pyridin-2-yl]thiazol-2-yl}ethyl)piperidin-1-yl]-(piperidin-4-yl)metanone] | –
100 to 1000 | > 1000 | – | – | CC(=O)N1C[C@H](OCc2ccccc2)C[C@H]1c1ncc(-c2cccc(Nc3cc(C)ccn3)n2)s1 [Compound A-90] | –
– | – | – | – | CC(=O)c1ccc(-c2cccc(Nc3cc(OCCO)ccn3)n2)s1 [Compound B-73, 1-(5-{6-[4-(2-hydroxyethoxy)pyridin-2-ylamino]pyridin-2-yl}thiophen-2-yl)ethanone] | IC50 [1, 5]: < 100 nM; IC50 [2, 6]: 100 to 1000 nM
– | – | > 1000 | > 1000 | Cc1ccnc(Nc2cccc(-c3cnc([C@@H]4COC(=O)N4CC(=O)N4C[C@@H](O)[C@@H](O)C4)s3)n2)c1 [Compound A-404] | –
< 100 | > 1000 | – | – | Cc1ccnc(Nc2cccc(-c3cnc(CCC4CCNCC4)s3)n2)c1 [Compound A-258, N-(4-methylpyridin-2-yl)-N-{6-[2-(2-piperidin-4-ylethyl)thiazol-5-yl]pyridin-2-yl}amine] | –
100 to 1000 | 100 to 1000 | – | – | CN[C@@H](C)c1ncc(-c2cccc(Nc3cc(C)ccn3)n2)s1 [Compound A-51] | –
< 100 | 100 to 1000 | – | – | Cc1ccnc(Nc2cccc(-c3cnc(CCc4ccc(C(=O)N5C[C@@H](O)[C@@H](O)C5)cc4)s3)n2)c1 [Compound A-223, ((3R,4S)-3,4-dihydroxypyrrolidin-1-yl)-[4-(2-{5-[6-(4-methylpyridin-2-ylamino)pyridin-2-yl]thiazol-2-yl}ethyl)phenyl]methanone] | –
– | – | 100 to 1000 | 100 to 1000 | Cc1ccnc(Nc2cccc(-c3cnc(CN4C(=O)CC(C)(C)CC4=O)s3)n2)c1 [Compound A-385] | –
100 to 1000 | > 1000 | – | – | Cc1ccnc(Nc2cccc(-c3cnc(C(=O)CCC(=O)O)s3)n2)c1 [Compound A-124] | –
< 100 | 100 to 1000 | – | – | Cc1ccnc(Nc2cccc(-c3cnc(N(C)C[C@H]4CC[C@H](C(=O)O)CC4)s3)n2)c1 [Compound A-16, trans-4-[(N-methyl-N-{5-[6-(4-methylpyridin-2-ylamino)pyridin-2-yl]thiazol-2-yl}amino)methyl]cyclohexanecarboxylic acid] | –
– | – | < 100 | < 100 | NC(=O)[C@@H]1CCCN1c1ncc(-c2cccc(Nc3cc(Cl)ccn3)n2)s1 [Compound A-542, (S)-1-{5-[6-(4-chloropyridin-2-ylamino)pyridin-2-yl]thiazol-2-yl}pyrrolidine-2-carboxamide] | –
– | – | < 100 | 100 to 1000 | Cc1ccnc(Nc2cccc(-c3cnc(N4CCOCC4)s3)n2)c1 [Compound A-417, N-(4-methylpyridin-2-yl)-N-[6-(2-morpholin-4-ylthiazol-5-yl)pyridin-2-yl]amine] | –
100 to 1000 | 100 to 1000 | – | – | CC(=O)N[C@@H](C)c1ncc(-c2cccc(Nc3cc(C)ccn3)n2)s1 [Compound A-10, N—((S)-1-{5-[6-(4-methylpyridin-2-ylamino)pyridin-2-yl]thiazol-2-yl}ethyl)acetamide] | –
– | – | < 100 | 100 to 1000 | CN(c1ncc(-c2cccc(Nc3cc(Cl)ccn3)n2)s1)C1CCN(C(=O)CO)CC1 [Compound A-537, 1-[4-(N-{5-[6-(4-chloropyridin-2-ylamino)pyridin-2-yl]thiazol-2-yl}-N-methylamino)piperidin-1-yl]-2-hydroxyethanone] | –
– | – | < 100 | > 1000 | CNC(=O)CN1CCN(c2ncc(-c3cccc(Nc4cc(C)ccn4)n3)s2)CC1=O [Compound A-466, N-methyl-2-(4-{5-[6-(4-methylpyridin-2-ylamino)pyridin-2-yl]thiazol-2-yl}-2-oxopiperazin-1-yl)acetamide] | –
– | – | 100 to 1000 | > 1000 | COCCNC(=O)C1CCN(c2ncc(-c3cccc(Nc4cc(C)ccn4)n3)s2)CC1 [Compound A-435] | –
100 to 1000 | > 1000 | – | – | Cc1ccnc(Nc2cccc(-c3cnc([C@@H]4CCCN4)s3)n2)c1 [Compound A-42] | –
– | – | < 100 | > 1000 | Cc1ccnc(Nc2cccc(-c3cnc(N4CCC(C(=O)O)C4)s3)n2)c1 (stereo not drawn) [Compound A-576, 1-{5-[6-(4-methylpyridin-2-ylamino)pyridin-2-yl]thiazol-2-yl}pyrrolidine-3-carboxylic acid dihydrochloride] | –
– | – | < 100 | 100 to 1000 | COc1cc(C(=O)O)ccc1CN(C)c1ncc(-c2cccc(Nc3cc(C)ccn3)n2)s1 [Compound A-606, 3-methoxy-4-[(N-methyl-N-{5-[6-(4-methylpyridin-2-ylamino)pyridin-2-yl]thiazol-2-yl}amino)methyl]benzoic acid dihydrochloride] | –

IC50 [1, 3] [nM] | IC50 [2, 4] [nM] | IC50 [1, 7] [nM] | IC50 ([2]; Tables 1-x, compounds A) [nM] | Compound | also measured
– | – | – | – | COC(=O)CCNC(=O)c1ccc(-c2cccc(Nc3cc(C)ccn3)n2)s1 [Compound B-97] | IC50 [1, 5]: 100 to 1000 nM; IC50 [2, 6]: > 1000 nM
– | – | < 100 | 100 to 1000 | Cc1ccnc(Nc2cccc(-c3cnc(N4CCC(C)(C(N)=O)CC4)s3)n2)c1 [Compound A-500, 4-methyl-1-{5-[6-(4-methylpyridin-2-ylamino)pyridin-2-yl]thiazol-2-yl}piperidine-4-carboxamide] | –
100 to 1000 | 100 to 1000 | – | – | Cc1ccnc(Nc2cccc(-c3cnc(C4CCN(CCO)CC4)s3)n2)c1 [Compound A-189] | –
< 100 | < 100 | – | – | CC(=O)NC(C)(C)Cc1ncc(-c2cccc(Nc3cc(C)ccn3)n2)s1 [Compound A-334, N-(1,1-dimethyl-2-{5-[6-(4-methylpyridin-2-ylamino)pyridin-2-yl]thiazol-2-yl}ethyl)acetamide] | –
100 to 1000 | 100 to 1000 | – | – | Cc1ccnc(Nc2cccc(-c3cnc(CN4C(=O)CCCC4=O)s3)n2)c1 [Compound A-350] | –
> 1000 | > 1000 | – | – | Cc1ccnc(Nc2cccc(-c3cnc([C@H](CCCCNC(=O)OC(C)(C)C)NC(=O)OCc4ccccc4)s3)n2)c1 [Compound A-49] | –
– | – | 100 to 1000 | 100 to 1000 | CC(=O)N(C)[C@@H](Cc1ccc(O)cc1)c1ncc(-c2cccc(Nc3cc(C)ccn3)n2)s1 [Compound A-376] | –
– | – | < 100 | 100 to 1000 | CC(=O)N[C@@H]1CCN(c2ncc(-c3cccc(Nc4cc(C)ccn4)n3)s2)C1 [Compound A-472, N—((R)-1-{5-[6-(4-methylpyridin-2-ylamino)pyridin-2-yl]thiazol-2-yl}pyrrolidin-3-yl)acetamide] | –
100 to 1000 | 100 to 1000 | – | – | Cc1ccnc(Nc2cccc(-c3cnc([C@H]4CC[C@H](C(=O)N5CCC(NC(=O)CO)C5)CC4)s3)n2)c1 (stereo partly drawn) [Compound A-313] | –
– | – | > 1000 | > 1000 | Cc1ccnc(Nc2cccc(-c3cnc(CN4C(=O)CN(Cc5ccccc5)CC4=O)s3)n2)c1 [Compound A-391] | –
– | – | – | – | CC(=O)N1CCN(C(=O)c2ccc(-c3cccc(Nc4cc(C)ccn4)n3)s2)CC1 [Compound B-85] | IC50 [1, 5]: 100 to 1000 nM; IC50 [2, 6]: 100 to 1000 nM
– | – | < 100 | 100 to 1000 | Cc1ccnc(Nc2cccc(-c3cnc(N4CCC[C@@H](CC(=O)O)C4)s3)n2)c1 [Compound A-567, ((S)-1-{5-[6-(4-methylpyridin-2-ylamino)pyridin-2-yl]thiazol-2-yl}piperidin-3-yl)acetic acid] | –
100 to 1000 | 100 to 1000 | – | – | Cc1ccnc(Nc2cccc(-c3cnc(CCN)s3)n2)c1 [Compound A-245] | –
– | – | < 100 | 100 to 1000 | CC(O)c1ccnc(Nc2cccc(-c3cnc(N4CC[C@@H](O)C4)s3)n2)c1 (stereo partly drawn) [Compound A-554, (R)-1-(5-{6-[4-(1-hydroxyethyl)pyridin-2-ylamino]pyridin-2-yl}thiazol-2-yl)pyrrolidin-3-ol] | –
< 100 | 100 to 1000 | – | – | Cc1ccnc(Nc2cccc(-c3cnc([C@@H]4CCC(=O)N4)s3)n2)c1 [Compound A-55, (S)-5-{5-[6-(4-methylpyridin-2-ylamino)pyridin-2-yl]thiazol-2-yl}pyrrolidin-2-one] | –
– | – | – | – | CCOC(=O)Cc1ccnc(Nc2cccc(-c3ccc(C(C)=O)s3)n2)c1 [Compound B-52, {2-[6-(5-acetylthiophen-2-yl)pyridin-2-ylamino]pyridin-4-yl}acetic acid ethyl ester] | IC50 [1, 5]: < 100 nM; IC50 [2, 6]: > 1000 nM
100 to 1000 | > 1000 | – | – | Cc1ccnc(Nc2cccc(-c3cnc(C4CCCC(C(=O)O)C4)s3)n2)c1 (stereo not drawn) [Compound A-270] | –
– | – | < 100 | < 100 | O[C@@H]1CCN(c2ncc(-c3cccc(Nc4cc(Cl)ccn4)n3)s2)C1 [Compound A-539, (R)-1-{5-[6-(4-chloropyridin-2-ylamino)pyridin-2-yl]thiazol-2-yl}pyrrolidin-3-ol] | –
– | – | < 100 | 100 to 1000 | COCCN(c1ncc(-c2cccc(Nc3cc(C)ccn3)n2)s1)C1CCN(C(C)=O)CC1 [Compound A-526, 1-[4-(N-(2-methoxyethyl)-N-{5-[6-(4-methylpyridin-2-ylamino)pyridin-2-yl]thiazol-2-yl}amino)piperidin-1-yl]ethanone] | –

Reference: patent publication US7803801B2, “Aminopyridine compounds having Syk inhibitory activity” (Japan Tobacco, Inc., priority 2005, dated 2010)
